The results in this text go back to patent publication US10457637B2, “Benzenesulfonamide derivatives as inverse agonists of retinoid-related orphan receptor gamma (RORγ(T))” (GALDERMA RESEARCH & DEVELOPMENT, priority 2014, dated 2019).

Experiment [1] deals with IL-17A secretion by CD4+ cells. Briefly: IL-17A secretion by CD4+ cells (HTRF). Conditions: 96 h; human CD4+ cells activated with anti-CD3 and anti-CD28, 4 days of incubation; read-out: IC50 hCD4/IL17. It counts as cell-based. As to the method: This model allows measurement of the effect of inhibitors on IL-17A secretion by CD4+ cells. […] The amount of IL-17a secreted is measured by the TR-FRET (kit HTRF® Human Interleukin 17A (Cisbio, #64H17PEC)) technology.
The cells are rapidly thawed, resuspended in their culture medium (RPMI inactivated 10% FCS) supplemented with soluble anti-CD28 antibodies and seeded (100 000 cells/well) in 96-well plates precoated with anti-CD3 antibodies. The cells are then treated with the ranges of inhibitors to be tested (from 1000 nM to 0.05 nM, 0.1% DMSO). […] The IC50 values are calculated from a 4-parameter logistic model using the XLFit software (IDBS).

Experiment [2] deals with ROR gamma ligand-binding domain (hRORg) (Homo sapiens (Human), UniProt P51449). Briefly: GAL4-RORγ transactivation (luciferase reporter, HG5LN HeLa line). It counts as cell-based. Conditions: 18 hours incubation. The source says: GAL4-RORγ Transactivation
Sequence of ROR gamma ligand-binding domain (hRORg) (P51449 269-508): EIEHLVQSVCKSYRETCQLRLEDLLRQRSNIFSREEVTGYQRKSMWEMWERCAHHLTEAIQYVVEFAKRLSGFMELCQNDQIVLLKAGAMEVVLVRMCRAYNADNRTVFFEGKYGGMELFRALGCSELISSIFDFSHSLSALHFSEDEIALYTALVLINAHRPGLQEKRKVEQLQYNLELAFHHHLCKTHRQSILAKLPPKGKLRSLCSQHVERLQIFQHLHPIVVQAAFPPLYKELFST
The RORγ transactivation model was developed from the line HG5LN, which is a HeLa line that stably expresses a luciferase reporter gene controlled by a pentamer of the GAL4 recognition domain of yeast and of a β-globin promoter. The HG5LN line was stably transfected by the DNA-binding domain (DBD) of GAL4 fused to the ROR gamma ligand-binding domain (LBD). Molecules that inhibit the ROR gamma constitutive activity reduce the luciferase expression, thus leading to a reduction in the emitted luminescence.
The cells are seeded in 384-well plates (5000 cells in 45 μL/well of culture medium containing 10% fetal calf serum) and incubated for 4 hours at 37° C., 5% CO2. 5 μL of the test molecules (compounds described in the tables described above) are then added to each well and the plates are incubated for 18 hours at a temperature of 37° C. under 5% of CO2. 20 μL of luciferase substrate (Promega) are added to each well and the luminescence emitted is read by a microplate reader.
The luminescence units (“RLU”) are normalized by positive controls (“POS” containing a saturated concentration of benzenesulfonamide, N-(2,2,2-trifluoroethyl)-N-[4-[2,2,2-trifluoro-1-hydroxy-1-(trifluoromethyl)ethyl]phenyl]) and negative controls (“NEG” containing DMSO): % inhibition=((RLU−NEG)*100)/(POS−NEG). The IC50 values are calculated from a 4-parameter logistic model using the XLFit software (IDBS).
In general terms: In a reporter assay the amount or activity of a reporter protein is the signal.

Each structure is given as a SMILES string. pIC50: −log10 of the molar value.

Take `CCc1ccc(N(CC(C)C)S(=O)(=O)c2ccc(OCC3CCOCC3)c(S(=N)(=O)CC)c2)cc1` (stereo not shown) [compound 18, N-(4-ethylphenyl)-N-isobutyl-3-ethanesulfoximino-4-(tetrahydropyran-4-ylmethoxy)benzenesulfonamide]: in experiment [1], the pIC50 was > 7.00.

Regarding `CCc1ccc(N(CC(C)C)S(=O)(=O)c2ccc(OCC3(F)CCOCC3)c(S(C)(=N)=O)c2)cc1` (stereo not shown) [compound 30, N-(4-ethylphenyl)-4-((4-fluorotetrahydro-2H-pyran-4-yl)methoxy)-N-isobutyl-3-(S-methylsulfonimidoyl)benzenesulfonamide], the pIC50 in experiment [1] and in experiment [2] was > 7.00 in each case. `CCc1ccc(N(CC(C)C)S(=O)(=O)c2ccc(NCC3CCOCC3)c(S(C)(=N)=O)c2)cc1` (stereo not shown) [compound 52, N-(4-ethylphenyl)-N-isobutyl-3-(S-methysulfonimidoyl)-4-[(tetrahydropyran-4-ylmethyl)amino]benzenesulfonamide]: in experiment [1], the pIC50 is > 7.00. With `CCc1ccc(N(CC(C)C)S(=O)(=O)c2ccc(NCc3ccncc3)c(S(C)(=N)=O)c2)cc1` (stereo not shown) [compound 64, N-(4-ethylphenyl)-N-isobutyl-3-(S-methylsulfonimidoyl)-4-((pyridin-4-ylmethyl)amino)benzenesulfonamide], the pIC50 in experiment [1] and in experiment [2] was > 7.00 each time. Take `CCc1ccc(N(CC(C)C)S(=O)(=O)c2ccc(OCC3CCOCC3)c(S(N)(=O)=O)c2)cc1` [compound 66, 4-(tetrahydropyran-4-ylmethoxy)benzene-1,3-disulfonic acid 3-amide 1-[(4-ethylphenyl)isobutylamide]]: in experiment [1], the pIC50 is > 7.00. `CCc1ccc(N(CC(C)C)S(=O)(=O)c2ccc(N3CCSCC3)c(S(C)(=N)=O)c2)cc1` (stereo not shown) [compound 87, N-(4-ethylphenyl)-N-isobutyl-3-(S-methylsulfonimidoyl)-4-thiomorpholinobenzenesulfonamide]: the pIC50 in experiment [1] and in experiment [2] was > 7.00 throughout. With `CCc1ccc(N(CC(C)C)S(=O)(=O)c2ccc(NC[C@@H]3[C@H]4COC[C@@H]34)c(S(C)(=N)=O)c2)cc1` (stereo partly drawn) [compound 91, 4-((((1R,5S,6S)-3-oxabicyclo[3.1.0]hexan-6-yl)methyl)amino)-N-(4-ethylphenyl)-N-isobutyl-3-(S-methylsulfonimidoyl)benzenesulfonamide], the pIC50 in experiment [1] and in experiment [2] was > 7.00 each time. On to `CCc1ccc(N(CC(C)C)S(=O)(=O)c2ccc(NCC3CSC3)c(S(C)(=N)=O)c2)cc1` (stereo not shown) [compound 99, N-(4-ethylphenyl)-N-isobutyl-3-(S-methylsulfonimidoyl)-4-((thietan-3-ylmethyl)amino)benzenesulfonamide], for which the pIC50 in experiment [1] and in experiment [2] was > 7.00 in each case. As to `CCc1ccc(N(CC(C)C)S(=O)(=O)c2ccc(N3CCOC[C@H]3C)c(S(C)(=N)=O)c2)cc1` (stereo partly drawn) [compound 103, N-(4-ethylphenyl)-N-isobutyl-4-((R)-3-methylmorpholino)-3-(S-methylsulfonimidoyl)benzenesulfonamide], the pIC50 in experiment [1] and in experiment [2] was < 6.00 throughout.

As for `CCc1ccc(N(CC(C)C)S(=O)(=O)c2ccc(N3CCC4(COC4)C3)c(S(C)(=N)=O)c2)cc1` (stereo not shown) [compound 112, N-(4-ethylphenyl)-N-isobutyl-3-(S-methylsulfonimidoyl)-4-(2-oxa-6-azaspiro[3.4]octan-6-yl)benzenesulfonamide], the values for the pIC50 in experiment [1] and in experiment [2] were > 7.00 and 6.00 to 7.00, respectively. Take `CCc1ccc(N(CC(C)C)S(=O)(=O)c2ccc(N3CCC4(CC3)COC4)c(S(C)(=N)=O)c2)cc1` (stereo not shown) [compound 114, N-(4-ethylphenyl)-N-isobutyl-3-(S-methylsulfonimidoyl)-4-(2-oxa-7-azaspiro[3.5]nonan-7-yl)benzenesulfonamide]: the pIC50 in experiment [2] is 6.00 to 7.00. On to `CCc1ccc(N(CC(C)C)S(=O)(=O)c2ccc(N3C[C@H]4C[C@@H]3CO4)c(S(C)(=N)=O)c2)cc1` (stereo partly drawn) [compound 115, 4-((1R,4R)-2-oxa-5-azabicyclo[2.2.1]heptan-5-yl)-N-(4-ethylphenyl)-N-isobutyl-3-(S-methylsulfonimidoyl)benzenesulfonamide], for which the pIC50 in experiment [2] is 6.00 to 7.00.

On to `CCc1ccc(N(CC(C)C)S(=O)(=O)c2ccc(N3CC4CC3CO4)c(S(C)(=N)=O)c2)cc1` [compound 117, 4-((1R,4R)-2-oxa-5-azabicyclo[2.2.1]heptan-5-yl)-N-(4-ethylphenyl)-N-isobutyl-3-(S-methylsulfonimidoyl)benzenesulfonamide], for which the pIC50 in experiment [2] was 6.00 to 7.00.

Regarding `CCc1ccc(N(CC(C)C)S(=O)(=O)c2ccc(NCc3nn[nH]n3)c(S(C)(=N)=O)c2)cc1` (stereo not shown) [compound 118, 4-(((2H-tetrazol-5-yl)methyl)amino)-N-(4-ethylphenyl)-N-isobutyl-3-(S-methylsulfonimidoyl)benzenesulfonamide], the pIC50 in experiment [2] was < 6.00.

Consider `CCc1ccc(N(CC(C)C)S(=O)(=O)c2ccc(N3CC4(CNC4)C3)c(S(C)(=N)=O)c2)cc1` (stereo not shown) [compound 121, -(4-ethylphenyl)-N-isobutyl-3-(S-methylsulfonimidoyl)-4-(2,6-diazaspiro[3.3]heptan-2-yl)benzenesulfonamide], for which the pIC50 in experiment [2] was < 6.00.

Take `CCc1ccc(N(CC(C)C)S(=O)(=O)c2ccc(N3CC4(CN(C(C)=O)C4)C3)c(S(C)(=N)=O)c2)cc1` (stereo not shown) [compound 122, 4-(6-acetyl-2,6-diazaspiro[3.3]heptan-2-yl)-N-(4-ethylphenyl)-N-isobutyl-3-(S-methylsulfonimidoyl)benzenesulfonamide]: the pIC50 in experiment [2] is < 6.00. For `CCc1ccc(N(CC(C)C)S(=O)(=O)c2ccc(N3CCOCC3)c(S(C)(=N)=O)c2)cc1` (stereo not shown) [compound 123, N-(4-ethylphenyl)-N-isobutyl-3-(S-methylsulfonimidoyl)-4-morpholinobenzenesulfonamide], the pIC50 in experiment [1] and in experiment [2] was > 7.00 throughout. In the case of `CCc1ccc(N(CC(C)C)S(=O)(=O)c2ccc(NCC3(CC)CCOCC3)c(S(C)(=N)=O)c2)cc1` (stereo not shown) [compound 124, N-(4-ethylphenyl)-4-(((4-ethyltetrahydro-2H-pyran-4-yl)methyl)amino)-N-isobutyl-3-(S-methylsulfonimidoyl)benzenesulfonamide], the pIC50 in experiment [1] is > 7.00.

`CCc1ccc(N(CC(C)C)S(=O)(=O)c2ccc(NCC3(OC)CCOCC3)c(S(C)(=N)=O)c2)cc1` (stereo not shown) [compound 125, N-(4-ethylphenyl)-N-isobutyl-4-(((4-methoxytetrahydro-2H-pyran-4-yl)methyl)amino)-3-(S-methylsulfonimidoyl)benzenesulfonamide]: the pIC50 in experiment [1] is < 6.00; in experiment [2], 6.00 to 7.00. Turning to `CCc1ccc(N(CC(C)C)S(=O)(=O)c2ccc(NCC3(CC)COC3)c(S(C)(=N)=O)c2)cc1` (stereo not shown) [compound 126, 4-(((3-ethyloxetan-3-yl)methyl)amino)-N-(4-ethylphenyl)-N-isobutyl-3-(S-methylsulfonimidoyl)benzenesulfonamide], the pIC50 in experiment [2] is < 6.00.

Take `CCc1ccc(N(CC(C)C)S(=O)(=O)c2ccc(NCc3ccnc(OC)c3)c(S(C)(=N)=O)c2)cc1` (stereo not shown) [compound 127, N-(4-ethylphenyl)-N-isobutyl-4-(((2-methoxypyridin-4-yl)methyl)amino)-3-(S-methylsulfonimidoyl)benzenesulfonamide]: in experiment [2], the pIC50 was 6.00 to 7.00. In the case of `CCc1ccc(N(CC(C)C)S(=O)(=O)c2ccc(NCC3(N4CCCC4)COC3)c(S(C)(=N)=O)c2)cc1` (stereo not shown) [compound 132, N-(4-ethylphenyl)-N-isobutyl-3-(S-methylsulfonimidoyl)-4-(((3-(pyrrolidin-1-yl)oxetan-3-yl)methyl)amino)benzenesulfonamide], the pIC50 in experiment [2] was < 6.00.

Turning to `CCc1ccc(N(CC(C)C)S(=O)(=O)c2ccc(N3CCCOCC3)c(S(C)(=N)=O)c2)cc1` (stereo not shown) [compound 137, N-(4-ethylphenyl)-N-isobutyl-3-(S-methylsulfonimidoyl)-4-(1,4-oxazepan-4-yl)benzenesulfonamide], the pIC50 in experiment [2] was 6.00 to 7.00. Turning to `CCc1ccc(N(CC(C)C)S(=O)(=O)c2ccc(N3CCNCC3)c(S(C)(=N)=O)c2)cc1` (stereo not shown) [compound 140, N-(4-ethylphenyl)-N-isobutyl-3-(S-methylsulfonimidoyl)-4-(piperazin-1-yl)benzenesulfonamide], the pIC50 in experiment [2] is < 6.00.

`COc1ccc(N(C(C)C)S(=O)(=O)c2ccc(OCC3CCOCC3)c(S(C)(=N)=O)c2)c(C)c1` (stereo not shown) [compound 143, N-isopropyl-N-(4-methoxy-2-methylphenyl)-3-(S-methylsulfonimidoyl)-4-((tetrahydro-2H-pyran-4-yl)methoxy)benzenesulfonamide] gave a pIC50 in experiment [2] of 6.00 to 7.00.
